Results as given in patent US10183944B2 (Asana Biosciences, LLC, priority 2011, dated 2019).
pEC50, pIC50: −log10 of the molar value.

What was measured:
[1] = target: Syk (356-635 amino acids) catalytic domain (Homo sapiens (Human), UniProt P43405); test: Inhibition of enzymatic Syk kinase activity (radiometric); assay type: biochemical; conditions: read-out: IC50 Syk
Summary of the method: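 Human Syk (356-635) kinase domain (0.035–7.5 ng/reaction) preincubated with compound 30 minutes at room temperature, then reacted with pG4T substrate, 100 μM ATP (stock) and γ-32P-ATP for 10 minutes at 30° C. Reaction stopped with HCl/ATP, spotted on P81 paper, washed and counted by scintillation. Percent inhibition versus no-compound counts.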

[2] = target: JAK2 (Homo sapiens (Human), UniProt O60674); test: Inhibition of enzymatic JAK2 kinase activity (TR-FRET); assay type: biochemical; conditions: read-out: IC50 JAK
Summary of the method: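 Enzyme preincubated with compound 30 min at RT, then Ulight-poly-GT substrate and ATP added for 60 min at RT. EDTA stop, Eu-antiphosphotyrosine antibody; TR-FRET ratio 665/615 nm (ex 340 nm), blank-corrected; % inhibition versus positive control.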

[3] = tested on: RBL2H3 cells; test: Degranulation assay: β-hexosaminidase release during immune complex mediated degranulation; assay type: cell-based, rat; conditions: Rattus norvegicus, RBL-2H3, Assay Protocol B (96 well format); for inhibition at 1 µM: read-out: Degranulation % inhibition at 1 μM; for pEC50: read-out: Degranulation EC50
Summary of the method: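 RBL2H3 cells sensitized overnight (or 24 h) with anti-DNP rat IgE, pretreated 15 min with compounds in 0.5% DMSO, then challenged with DNP-BSA for 45–60 min. β-Hexosaminidase in supernatant read fluorometrically (Ex 355/Em 460 nm) with β-NAG substrate, 30 min RT; % release/inhibition calculated.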

Chain of JAK2 (O60674 808-1132): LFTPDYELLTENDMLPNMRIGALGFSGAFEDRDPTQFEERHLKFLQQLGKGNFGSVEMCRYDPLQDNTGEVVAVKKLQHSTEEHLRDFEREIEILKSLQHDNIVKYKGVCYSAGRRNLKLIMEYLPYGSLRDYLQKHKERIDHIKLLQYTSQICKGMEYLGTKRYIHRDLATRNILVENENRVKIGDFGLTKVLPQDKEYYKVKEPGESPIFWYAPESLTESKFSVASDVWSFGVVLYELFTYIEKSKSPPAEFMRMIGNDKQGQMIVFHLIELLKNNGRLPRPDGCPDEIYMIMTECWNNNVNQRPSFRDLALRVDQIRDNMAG

SMILES | pIC50 [1] | pIC50 [2] | pEC50 [3] | inhibition at 1 µM [3] [%]
N#CCC1CCN(c2nc(Nc3ccc(N4CCC(CCC(=O)O)CC4)cc3)c3c(=O)[nH]ncc3n2)CC1 [Example 147, 3-(1-(4-((2-(4-(cyanomethyl)piperidin-1-yl)-5-oxo-5,6-dihydropyrimido[4,5-d]pyridazin-4-yl)amino)phenyl)piperidin-4-yl)propanoic acid] | > 8.00 | > 7.30 | 6.82 | 49
O=C(O)C1CC12CCN(CCOc1ccc(Nc3nc(N4CCCCCC4)nc4cn[nH]c(=O)c34)cc1)CC2 (centres unmarked) [Example 158, 6-(2-(4-((2-(azepan-1-yl)-5-oxo-5,6-dihydropyrimido[4,5-d]pyridazin-4-yl)amino)phenoxy)ethyl)-6-azaspiro[2.5]octane-1-carboxylic acid] | > 7.30 | > 8.00 | 6.79 | 53
CCN(CC)CCOc1ccc(Nc2nc(N3CCCCCC3)nc3cn[nH]c(=O)c23)cc1 [Example 159, 2-(azepan-1-yl)-4-((4-(2-(diethylamino)ethoxy)phenyl)amino)pyrimido[4,5-d]pyridazin-5(6H)-one] | > 7.30 | > 8.00 | 7.25 | 68
CN(c1nc(Nc2ccc(N3CCC(CC(=O)O)CC3)cc2)c2c(=O)[nH]ncc2n1)C1CCCCC1 [Example 161, 2-(1-(4-((2-(cyclohexyl(methyl)amino)-5-oxo-5,6-dihydropyrimido[4,5-d]pyridazin-4-yl)amino)phenyl)piperidin-4-yl)acetic acid] | > 7.30 | > 8.00 | 7.41 | 74
N#CCC1CCN(c2nc(Nc3ccc(N4CCN(CC(=O)O)CC4)cc3)c3c(=O)[nH]ncc3n2)CC1 [Example 162, 2-(4-(4-((2-(4-(cyanomethyl)piperidin-1-yl)-5-oxo-5,6-dihydropyrimido[4,5-d]pyridazin-4-yl)amino)phenyl)piperazin-1-yl)acetic acid] | > 8.00 | > 8.00 | 6.55 | 27
CCN1CCN(c2ccc(Nc3nc(N4CCCCCC4)nc4cn[nH]c(=O)c34)cc2)CC1=O [Example 175, 2-(azepan-1-yl)-4-((4-(4-ethyl-3-oxopiperazin-1-yl)phenyl)amino) pyrimido[4,5-d]pyridazin-5(6H)-one] | > 8.00 | > 8.00 | 8.22 | 98
O=c1[nH]ncc2nc(N3CCCCC3)nc(Nc3ccc(OCCN4CCC(O)CC4)cc3)c12 [Example 183, 4-((4-(2-(4-hydroxypiperidin-1-yl)ethoxy)phenyl)amino)-2-(piperidin-1-yl)pyrimido[4,5-d]pyridazin-5(6H)-one] | > 8.00 | > 7.30 | 7.08 | 41
O=c1[nH]ncc2nc(N3CCCCCC3)nc(Nc3ccc(N4CCC(O)CC4)cc3)c12 [Example 186, 2-(azepan-1-yl)-4-((4-(4-hydroxypiperidin-1-yl)phenyl)amino) pyrimido[4,5-d]pyridazin-5(6H)-one] | > 8.00 | > 7.00 | 8.00 | 93
CCN1CCN(c2ccc(Nc3nc(N4CCC(CC#N)CC4)nc4cn[nH]c(=O)c34)cc2)CC1 [Example 187, 2-(1-(4-((4-(4-ethylpiperazin-1-yl)phenyl)amino)-5-oxo-5,6-dihydropyrimido[4,5-d]pyridazin-2-yl)piperidin-4-yl)acetonitrile] | > 8.00 | > 7.30 | 7.92 | 100
O=c1[nH]ncc2nc(N3CCCCCC3)nc(Nc3ccc(N4CCNCC4)cc3)c12 [Example 192, 2-(azepan-1-yl)-4-((4-(piperazin-1-yl)phenyl)amino)pyrimido[4,5-d]pyridazin-5(6H)-one] | > 8.00 | > 8.00 | 7.57 | 82
N#CCC1CCN(c2nc(Nc3ccc(N4CCNCC4)cc3)c3c(=O)[nH]ncc3n2)CC1 [Example 193, 2-(1-(5-oxo-4-((4-(piperazin-1-yl)phenyl)amino)-5,6-dihydropyrimido[4,5-d]pyridazin-2-yl)piperidin-4-yl)acetonitrile] | > 8.00 | > 8.00 | 7.77 | 93
N#CCC1CCN(c2nc(Nc3ccc(OCCN)cc3)c3c(=O)[nH]ncc3n2)CC1 [Example 200, 2-(1-(4-((4-(2-aminoethoxy)phenyl)amino)-5-oxo-5,6-dihydropyrimido[4,5-d]pyridazin-2-yl)piperidin-4-yl) acetonitrile] | > 8.00 | > 7.30 | 7.18 | 71

The next lines start with results.

pIC50 [1] | pIC50 [2] | pEC50 [3] | SMILES | inhibition at 1 µM [3] [%]
> 8.00 | > 7.30 | 7.59 | CC(C)(O)C1CCN(c2ccc(Nc3nc(N4CCC(CC#N)CC4)nc4cn[nH]c(=O)c34)cc2)CC1 [Example 146, 2-(1-(4-((4-(4-(2-hydroxypropan-2-yl)piperidin-1-yl)phenyl)amino)-5-oxo-5,6-dihydropyrimido[4,5-d]pyridazin-2-yl)piperidin-4-yl)acetonitrile] | 66
> 7.30 | > 7.00 | 6.49 | O=c1[nH]ncc2nc(N3CCCCC3)nc(Nc3ccc(OCCN4CCNCC4)cc3)c12 [Example 153, 4-((4-(2-(piperazin-1-yl)ethoxy)phenyl)amino)-2-(piperidin-1-yl)pyrimido[4,5-d]pyridazin-5(6H)-one] | 47
> 7.30 | > 7.30 | 5.63 | O=C(O)CN1CCCN(c2ccc(Nc3nc(N4CCCCC4)nc4cn[nH]c(=O)c34)cc2)CC1 [Example 154, 2-(4-(4-((5-oxo-2-(piperidin-1-yl)-5,6-dihydropyrimido[4,5-d]pyridazin-4-yl)amino)phenyl)-1,4-diazepan-1-yl)acetic acid] | 23
> 7.30 | > 7.30 | 7.57 | CC1CCN(c2nc(Nc3ccc(N4CCC5(CC4)CC5C(=O)O)cc3)c3c(=O)[nH]ncc3n2)CC1 (centres unmarked) [Example 155, 6-(4-((2-(4-methylpiperidin-1-yl)-5-oxo-5,6-dihydropyrimido[4,5-d]pyridazin-4-yl)amino)phenyl)-6-azaspiro[2.5]octane-1-carboxylic acid] | –
> 7.30 | > 7.30 | 7.38 | O=C1CN(CCOc2ccc(Nc3nc(N4CCCCCC4)nc4cn[nH]c(=O)c34)cc2)CCN1 [Example 157, 2-(azepan-1-yl)-4-((4-(2-(3-oxopiperazin-1-yl)ethoxy)phenyl)amino) pyrimido[4,5-d]pyridazin-5(6H)-one] | 70
> 7.30 | > 8.00 | 7.00 | O=c1[nH]ncc2nc(N3CCCCCC3)nc(Nc3ccc(OCCN4CCC(O)CC4)cc3)c12 [Example 172, 2-(azepan-1-yl)-4-((4-(2-(4-hydroxypiperidin-1-yl)ethoxy)phenyl)amino)pyrimido[4,5-d]pyridazin-5(6H)-one] | 50
> 7.30 | > 7.30 | 7.54 | O=c1[nH]ncc2nc(N3CCCCCC3)nc(Nc3ccc(CCCN4CCNCC4)cc3)c12 [Example 173, 2-(azepan-1-yl)-4-((4-(3-(piperazin-1-yl)propyl)phenyl)amino)pyrimido[4,5-d]pyridazin-5(6H)-one] | 66
> 8.00 | > 8.00 | 7.41 | CCN1CCN(c2ccc(Nc3nc(N4CCC(CC#N)CC4)nc4cn[nH]c(=O)c34)cc2)CC1=O [Example 178, 2-(1-(4-((4-(4-ethyl-3-oxopiperazin-1-yl)phenyl)amino)-5-oxo-5,6-dihydropyrimido[4,5-d]pyridazin-2-yl)piperidin-4-yl)acetonitrile] | 73
> 8.00 | > 8.00 | 8.05 | O=c1[nH]ncc2nc(N3CCCCCC3)nc(Nc3ccc(CCCN4CCC(O)CC4)cc3)c12 [Example 179, 2-(azepan-1-yl)-4-((4-(3-(4-hydroxypiperidin-1-yl)propyl)phenyl)amino)pyrimido[4,5-d]pyridazin-5(6H)-one] | 45
> 8.00 | > 8.00 | 8.52 | CCN1CCN(c2ccc(Nc3nc(N4CCCCCC4)nc4cn[nH]c(=O)c34)cc2)CC1 [Example 180, 2-(azepan-1-yl)-4-((4-(4-ethylpiperazin-1-yl)phenyl)amino)pyrimido[4,5-d]pyridazin-5(6H)-one] | 70
> 8.00 | > 8.00 | 7.48 | CC1(O)CCN(CCOc2ccc(Nc3nc(N4CCCCCC4)nc4cn[nH]c(=O)c34)cc2)CC1 [Example 184, 2-(azepan-1-yl)-4-((4-(2-(4-hydroxy-4-methylpiperidin-1-yl)ethoxy)phenyl)amino)pyrimido[4,5-d]pyridazin-5(6H)-one] | 65
> 8.00 | > 7.30 | 7.54 | CC1(O)CCN(CCOc2ccc(Nc3nc(N4CCC(CC#N)CC4)nc4cn[nH]c(=O)c34)cc2)CC1 [Example 185, 2-(1-(4-((4-(2-(4-hydroxy-4-methylpiperidin-1-yl)ethoxy)phenyl)amino)-5-oxo-5,6-dihydropyrimido[4,5-d]pyridazin-2-yl)piperidin-4-yl)acetonitrile] | 83
